Values after ≈ are worked out from the molar mass of the structure shown.
Legend:
Assay in all cases: Broth dilution MIC
Type in all cases: cell-based
CNS GC 4537 = conditions: Mueller-Hinton broth, 18 hours at 35° C.
Description: (§1) The in vitro antibacterial activity of AA-896-A1, AA-896-A2, AA-896-A3, AA-896-A4, AA-896-A5, AA-896-B1, AA-896-B2, AA-896-B3, AA-896-B4, AA-896-B5, AA-896-B6, AA-896-B7, AA-896-C1, AA-896-C2, AA-896-C3, AA-896-C4, AA-896-D1, AA896-D2 and AA-896-D3 is determined against a spectrum of Gram-positive and Gram-negative bacteria by a standard broth dilution method. Serial dilution of the compounds are made in Mueller-Hinton broth and inoculated with a bacterial suspension. The lowest concentration of compound that inhibited the growth of a bacterial strain after 18 hours of incubation at 35° C. is reported as the minimal inhibitory concentration (MIC) for that strain.

P. aeruginosa GC 2214 = conditions: 18 hours at 35° C.; for Antimicrobial Activity (MIC): Mueller-Hinton broth
Description: as §1

P. aeruginosa GC 4532 = conditions: 18 hours at 35° C.; for Antimicrobial Activity (MIC): Mueller-Hinton broth
Description: as §1

E. cloacae GC 3783 = conditions: 18 hours at 35° C.; for Antimicrobial Activity (MIC): Mueller-Hinton broth
Description: as §1

S. aureus GC 1131 = conditions: 18 hours at 35° C.; for Antimicrobial Activity (MIC): Mueller-Hinton broth
Description: as §1

S. marcescens GC 4077 = conditions: 18 hours at 35° C.; for Antimicrobial Activity (MIC): Mueller-Hinton broth
Description: as §1

E. coli GC 4559 = conditions: 18 hours at 35° C.; for Antimicrobial Activity (MIC): Mueller-Hinton broth
Description: as §1

E. faecalis GC 842 = conditions: 18 hours at 35° C.; for Antimicrobial Activity (MIC): Mueller-Hinton broth
Description: as §1

E. faecalis GC 2242 = conditions: 18 hours at 35° C.; for Antimicrobial Activity (MIC): Mueller-Hinton broth
Description: as §1

E. coli GC 4560 = conditions: 18 hours at 35° C.; for Antimicrobial Activity (MIC): Mueller-Hinton broth
Description: as §1

E. coli GC 3226 = conditions: 18 hours at 35° C.; for Antimicrobial Activity (MIC): Mueller-Hinton broth
Description: as §1

E. faecalis GC 4555 = conditions: 18 hours at 35° C.; for Antimicrobial Activity (MIC): Mueller-Hinton broth
Description: as §1

K. pneumoniae GC 4534 = conditions: 18 hours at 35° C.; for Antimicrobial Activity (MIC): Mueller-Hinton broth
Description: as §1

P. rettgeri GC 4530 = conditions: 18 hours at 35° C.; for Antimicrobial Activity (MIC): Mueller-Hinton broth
Description: as §1

CNS GC 4538 = conditions: Mueller-Hinton broth, 18 hours at 35° C.
Description: as §1

CNS GC 4547 = conditions: Mueller-Hinton broth, 18 hours at 35° C.
Description: as §1

M. morganii GC 4531 = conditions: 18 hours at 35° C.; for Antimicrobial Activity (MIC): Mueller-Hinton broth
Description: as §1

S. aureus GC 4536 = conditions: 18 hours at 35° C.; for Antimicrobial Activity (MIC): Mueller-Hinton broth
Description: as §1

S. aureus GC 2216 = conditions: 18 hours at 35° C.; for Antimicrobial Activity (MIC): Mueller-Hinton broth
Description: as §1

E. coli GC 2203 = conditions: 18 hours at 35° C.; for Antimicrobial Activity (MIC): Mueller-Hinton broth
Description: as §1

[1] = read-out: Antimicrobial Activity (MIC)

Compound: CC(C)C(NC(=O)NC(C(=O)NC(C(=O)NCCCNC(C(=O)O)C(OC1CC(O)C(CN)O1)C1OC(n2ccc(=O)[nH]c2=O)C(O)C1O)C(O)C(C)C)C1CCNC(=N)N1)C(=O)O [AA-896-C3, 5-O-[5-Amino-2,5-dideoxy-β-D-ribofuranosyl]-6-[[3-[2-[2-[[(1-carboxy-2-methylpropyl)-carbamoyl]amino]-2-(hexahydro-2-iminopyrimidin-4-yl)acetamido]-3-hydroxy-4-methyl-pentanamido]propyl]amino]-1,6-dideoxy-1-(3,4-dihydro-2,4-dioxopyrimidin-1(2H)-yl)-β-D-heptofuranuronic acid]
- Antimicrobial Activity (MIC) (CNS GC 4537): >32 µg/mL
- Antimicrobial Activity (MIC) (P. aeruginosa GC 2214): 16 µg/mL
- Antimicrobial Activity (MIC) (P. aeruginosa GC 4532): 32 µg/mL
- Antimicrobial Activity (MIC) (E. cloacae GC 3783): 8 µg/mL
- Antimicrobial Activity (MIC) (S. aureus GC 1131): >32 µg/mL
- Antimicrobial Activity (MIC) (S. marcescens GC 4077): >32 µg/mL
- Antimicrobial Activity (MIC) (E. coli GC 4559): 32 µg/mL
- Antimicrobial Activity (MIC) (E. faecalis GC 842): >32 µg/mL
- Antimicrobial Activity (MIC) (E. faecalis GC 2242): >32 µg/mL
- Antimicrobial Activity (MIC) (E. coli GC 4560): 0.5 µg/mL
- Antimicrobial Activity (MIC) (E. coli GC 3226): 32 µg/mL
- Antimicrobial Activity (MIC) (E. faecalis GC 4555): >32 µg/mL
- Antimicrobial Activity (MIC) (K. pneumoniae GC 4534): >32 µg/mL
- Antimicrobial Activity (MIC) (P. rettgeri GC 4530): >32 µg/mL
- Antimicrobial Activity (MIC) (CNS GC 4538): >32 µg/mL
- Antimicrobial Activity (MIC) (CNS GC 4547): >32 µg/mL
- Antimicrobial Activity (MIC) (M. morganii GC 4531): >32 µg/mL
- Antimicrobial Activity (MIC) (S. aureus GC 4536): >32 µg/mL
- Antimicrobial Activity (MIC) (S. aureus GC 2216): >32 µg/mL
- Antimicrobial Activity (MIC) (E. coli GC 2203): 16 µg/mL

Compound: CC(C)C(NC(=O)NC(C(=O)NC(C(=O)NCCCNC(C(=O)O)C(O)C1OC(n2ccc(=O)[nH]c2=O)C(O)C1O)C(O)C(C)C)C1CCNC(=N)N1)C(=O)O [AA-896-C4, 6-[[3-[2-[2-[[(1-Carboxy-2-methylpropyl)carbamoyl]amino]-2-(hexahydro-2-iminopyrimidin-4-yl)acetamido]-3-hydroxy-4-methylpentanamido]propyl]amino]-1,6-dideoxy-1-(3,4-dihydro-2,4-dioxopyrimidin-1(2H)-yl)-β-D-heptofuranuronic acid]
- MIC (CNS GC 4537; [1]): > 32 µg/mL
- MIC (P. aeruginosa GC 2214; Pseudomonas aeruginosa, GC2214, Mueller-Hinton broth, read-out: Antimicrobial Activity (MIC)): 32 µg/mL (≈ 40 µM)
- MIC (P. aeruginosa GC 4532; Pseudomonas aeruginosa, GC4532, Mueller-Hinton broth, read-out: Antimicrobial Activity (MIC)): 32 µg/mL (≈ 40 µM)
- MIC (E. cloacae GC 3783; Enterobacter cloacae, GC3783, Mueller-Hinton broth, read-out: Antimicrobial Activity (MIC)): > 32 µg/mL
- MIC (S. aureus GC 1131; Staphylococcus aureus, GC1131, Mueller-Hinton broth, read-out: Antimicrobial Activity (MIC)): > 32 µg/mL
- MIC (S. marcescens GC 4077; Serratia marcescens, GC4077, Mueller-Hinton broth, read-out: Antimicrobial Activity (MIC)): > 32 µg/mL
- MIC (E. coli GC 4559; Escherichia coli, GC4559, Mueller-Hinton broth, read-out: Antimicrobial Activity (MIC)): > 32 µg/mL
- MIC (E. faecalis GC 842; Enterococcus faecalis, GC842, Mueller-Hinton broth, read-out: Antimicrobial Activity (MIC)): > 32 µg/mL
- MIC (E. faecalis GC 2242; Enterococcus faecalis, GC2242, Mueller-Hinton broth, read-out: Antimicrobial Activity (MIC)): > 32 µg/mL
- MIC (E. coli GC 4560; Escherichia coli, GC4560, Mueller-Hinton broth, read-out: Antimicrobial Activity (MIC)): 4 µg/mL (≈ 4.99 µM)
- MIC (E. coli GC 3226; Escherichia coli, GC3226, Mueller-Hinton broth, read-out: Antimicrobial Activity (MIC)): > 32 µg/mL
- MIC (E. faecalis GC 4555; Enterococcus faecalis, GC4555, Mueller-Hinton broth, read-out: Antimicrobial Activity (MIC)): > 32 µg/mL
- MIC (K. pneumoniae GC 4534; Klebsiella pneumoniae, GC4534, Mueller-Hinton broth, read-out: Antimicrobial Activity (MIC)): > 32 µg/mL
- MIC (P. rettgeri GC 4530; Providencia rettgeri, GC4530, Mueller-Hinton broth, read-out: Antimicrobial Activity (MIC)): > 32 µg/mL
- MIC (CNS GC 4538; [1]): > 32 µg/mL
- MIC (CNS GC 4547; [1]): > 32 µg/mL
- MIC (M. morganii GC 4531; Morganella morganii, GC4531, Mueller-Hinton broth, read-out: Antimicrobial Activity (MIC)): > 32 µg/mL
- MIC (S. aureus GC 4536; Staphylococcus aureus, GC4536, Mueller-Hinton broth, read-out: Antimicrobial Activity (MIC)): > 32 µg/mL
- MIC (S. aureus GC 2216; Staphylococcus aureus, GC2216, Mueller-Hinton broth, read-out: Antimicrobial Activity (MIC)): > 32 µg/mL
- MIC (E. coli GC 2203; Escherichia coli, GC2203, Mueller-Hinton broth, read-out: Antimicrobial Activity (MIC)): > 32 µg/mL

Compound: COC1C(OC(C(NCCCNC(=O)C(CC(C)C)NC(=O)C(NC(=O)NC(C(=O)O)C(C)C)C2CCNC(=N)N2)C(=O)O)C2OC(n3ccc(=O)[nH]c3=O)C(O)C2O)OC(CN)C1O [AA-896-D1, 5-O-[5-Amino-5-deoxy-2-O-methyl-β-D-ribofuranosyl]-6-[[3-[2-[2-[[(1-carboxy-2-methyl-propyl)carbamoyl]amino]-2-(hexahydro-2-iminopyrimidin-4-yl)acetamido]-4-methyl-pentanamido]propyl]amino]-1,6-dideoxy-1-(3,4-dihydro-2,4-dioxopyrimidin-1(2H)-yl)-β-D-heptofuranuronic acid]
- Antimicrobial Activity (MIC) (CNS GC 4537): >32 µg/mL
- Antimicrobial Activity (MIC) (P. aeruginosa GC 2214): 32 µg/mL
- Antimicrobial Activity (MIC) (P. aeruginosa GC 4532): 32 µg/mL
- Antimicrobial Activity (MIC) (E. cloacae GC 3783): 32 µg/mL
- Antimicrobial Activity (MIC) (S. aureus GC 1131): >32 µg/mL
- Antimicrobial Activity (MIC) (S. marcescens GC 4077): >32 µg/mL
- Antimicrobial Activity (MIC) (E. coli GC 4559): >32 µg/mL
- Antimicrobial Activity (MIC) (E. faecalis GC 842): >32 µg/mL
- Antimicrobial Activity (MIC) (E. faecalis GC 2242): >32 µg/mL
- Antimicrobial Activity (MIC) (E. coli GC 4560): 1 µg/mL
- Antimicrobial Activity (MIC) (E. coli GC 3226): 32 µg/mL
- Antimicrobial Activity (MIC) (E. faecalis GC 4555): >32 µg/mL
- Antimicrobial Activity (MIC) (K. pneumoniae GC 4534): >32 µg/mL
- Antimicrobial Activity (MIC) (P. rettgeri GC 4530): >32 µg/mL
- Antimicrobial Activity (MIC) (CNS GC 4538): >32 µg/mL
- Antimicrobial Activity (MIC) (CNS GC 4547): >32 µg/mL
- Antimicrobial Activity (MIC) (M. morganii GC 4531): >32 µg/mL
- Antimicrobial Activity (MIC) (S. aureus GC 4536): >32 µg/mL
- Antimicrobial Activity (MIC) (S. aureus GC 2216): >32 µg/mL
- Antimicrobial Activity (MIC) (E. coli GC 2203): >32 µg/mL

Compound: CC(C)CC(NC(=O)C(NC(=O)NC(C(=O)O)C(C)C)C1CCNC(=N)N1)C(=O)NCCCNC(C(=O)O)C(OC1CC(O)C(CN)O1)C1OC(n2ccc(=O)[nH]c2=O)C(O)C1O [AA-896-D3, 5-O-[5-Amino-2,5-dideoxy-β-D-ribofuranosyl]-6-[[3-[2-[2-[[(1-carboxy-2-methylpropyl)-carbamoyl]amino]-2-(hexahydro-2-iminopyrimidin-4-yl)acetamido]-4-methylpentanamido]-propyl]amino]-1,6-dideoxy-1-(3,4-dihydro-2,4-dioxopyrimidin-1(2H)-yl)-β-D-heptofuran-uronic acid]
- Antimicrobial Activity (MIC) (CNS GC 4537): >32 µg/mL
- Antimicrobial Activity (MIC) (P. aeruginosa GC 2214): 32 µg/mL
- Antimicrobial Activity (MIC) (P. aeruginosa GC 4532): >32 µg/mL
- Antimicrobial Activity (MIC) (E. cloacae GC 3783): >32 µg/mL
- Antimicrobial Activity (MIC) (S. aureus GC 1131): >32 µg/mL
- Antimicrobial Activity (MIC) (S. marcescens GC 4077): >32 µg/mL
- Antimicrobial Activity (MIC) (E. coli GC 4559): >32 µg/mL
- Antimicrobial Activity (MIC) (E. faecalis GC 842): >32 µg/mL
- Antimicrobial Activity (MIC) (E. faecalis GC 2242): >32 µg/mL
- Antimicrobial Activity (MIC) (E. coli GC 4560): 0.25 µg/mL
- Antimicrobial Activity (MIC) (E. coli GC 3226): 32 µg/mL
- Antimicrobial Activity (MIC) (E. faecalis GC 4555): >32 µg/mL
- Antimicrobial Activity (MIC) (K. pneumoniae GC 4534): >32 µg/mL
- Antimicrobial Activity (MIC) (P. rettgeri GC 4530): >32 µg/mL
- Antimicrobial Activity (MIC) (CNS GC 4538): >32 µg/mL
- Antimicrobial Activity (MIC) (CNS GC 4547): >32 µg/mL
- Antimicrobial Activity (MIC) (M. morganii GC 4531): >32 µg/mL
- Antimicrobial Activity (MIC) (S. aureus GC 4536): >32 µg/mL
- Antimicrobial Activity (MIC) (S. aureus GC 2216): >32 µg/mL
- Antimicrobial Activity (MIC) (E. coli GC 2203): 32 µg/mL
